# Tested on: C. albicans
structure (smiles),measurement,value
II [elemental iodine],elemental iodine concentrations required to affect microbial killing,< 0.01%

# — patent US6592890B1, “Conveyance of anti-infective activity to wound dressings” (OxiBio, Inc., priority 1999, dated 2003)
